Assay results from patent publication US7217710B2, “Substituted pyrazolopyrimidines” (SmithKline Beecham Corporation, priority 2001, dated 2007).

Columns and labels:
Type in all cases: biochemical
[1] = biological target: T1, GST-VEGFR2 (Homo sapiens, UniProt P35968); assay: VEGF-R2 Enzyme Assay (VEGF-E2), LANCE method
T1 construct: GST-VEGFR2, baculovirus expressed recombinant constructs of the intracellular domains; made in house

[2] = biological target: T2, catalytic domain of human VEGFR3 (Homo sapiens, UniProt P35916, H890Q); assay: VEGFR-3 Homogenous Time-Resolved Fluorescence Assay (VEGFR-3-HTRF)
T2 construct: made in house; host or cells: Sf9 insect cells (baculovirus, pFastBac1)
Procedure, shortened: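 GST-tagged human VEGFR3 catalytic domain (aa 819–1298, Sf9-expressed), pre-autophosphorylated 45 min with ATP/Mg, then 1 nM enzyme with 0.36 μM biotinylated peptide, 75 μM ATP, 10 mM MgCl2, pH 7.2, 1.5 h at room temperature. EDTA stop; HTRF detection; IC50 from hyperbolic fit of % control.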

[3] = biological target: Recombinant GST-Tie2 (Homo sapiens, UniProt Q02763); assay: Tie2 Fluorescence Polarization Kinase Activity Assay (TIE2-FP)
Experimental: Tie2 Fluorescence Polarization Kinase Activity Assay: (TIE2-FP)
Activation of Recombinant Tie2 Activation:
Recombinant GST-Tie2 is activated by incubating the enzyme in 20 mM Tris-HCl, pH 7.5, 12 mM MgCl2, 100 mM NaCl, 20 μM sodium vanidate, 1 mM DTT and 300 μM ATP at room temperature for 2 hours. The activation mixture is then passed through a NAP-25 desalting column (Pharmacia Biotech cat. no. 17-0852-02) to remove the free ATP. The activated enzyme is stored as aliquots at −80° C. in 20 mM Tris-HCl, pH 7.5 and 100 mM NaCl.
The final assay conditions are 50 mM HEPES, pH 7.5, 5% DMSO (when screening compounds), 200 μM ATP, 5 mM MgCl2, 1 mM DTT, 50 μM sodium vanidate, 1 nM activated enzyme, and 200 μM peptide. IC50's of compounds are measured under subsaturating ATP (200 μM) and varying concentrations of activated Tie2 and peptide substrate (RFWKYEFWR-OH; MW 1873 Da, TFA salt). Panvera Anti-phosphotyrosine antibody (Cat#P2840) and PTK Green Tracer (Cat#P2842) are used to detect the phosphorylated peptide. Polarization is measured on a TECAN Polarion in 138-second cycles for 30 minutes at room temperature. IC50's are then determined from the % polarization using normal calculation methods. The IC50 values are converted to pIC50 values, i.e., −log IC50 in Molar concentration.

T1 sequence (P35968 786-1356 limits assumed): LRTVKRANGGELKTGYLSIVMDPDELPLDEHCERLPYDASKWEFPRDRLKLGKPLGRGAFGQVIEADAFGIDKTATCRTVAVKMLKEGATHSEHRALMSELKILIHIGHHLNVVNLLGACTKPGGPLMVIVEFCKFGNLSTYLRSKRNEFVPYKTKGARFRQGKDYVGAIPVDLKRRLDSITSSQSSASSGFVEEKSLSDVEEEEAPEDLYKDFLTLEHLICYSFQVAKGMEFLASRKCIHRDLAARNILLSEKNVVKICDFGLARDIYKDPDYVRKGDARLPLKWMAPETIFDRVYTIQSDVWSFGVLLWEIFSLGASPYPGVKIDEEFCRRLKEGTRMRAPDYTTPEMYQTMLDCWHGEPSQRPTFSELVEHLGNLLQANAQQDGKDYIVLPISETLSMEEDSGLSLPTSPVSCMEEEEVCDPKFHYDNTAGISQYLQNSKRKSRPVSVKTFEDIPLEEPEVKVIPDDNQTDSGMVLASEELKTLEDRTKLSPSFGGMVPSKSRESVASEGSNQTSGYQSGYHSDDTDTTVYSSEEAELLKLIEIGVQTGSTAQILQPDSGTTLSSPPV
Chain of Recombinant GST-Tie2 (Q02763 23-1124): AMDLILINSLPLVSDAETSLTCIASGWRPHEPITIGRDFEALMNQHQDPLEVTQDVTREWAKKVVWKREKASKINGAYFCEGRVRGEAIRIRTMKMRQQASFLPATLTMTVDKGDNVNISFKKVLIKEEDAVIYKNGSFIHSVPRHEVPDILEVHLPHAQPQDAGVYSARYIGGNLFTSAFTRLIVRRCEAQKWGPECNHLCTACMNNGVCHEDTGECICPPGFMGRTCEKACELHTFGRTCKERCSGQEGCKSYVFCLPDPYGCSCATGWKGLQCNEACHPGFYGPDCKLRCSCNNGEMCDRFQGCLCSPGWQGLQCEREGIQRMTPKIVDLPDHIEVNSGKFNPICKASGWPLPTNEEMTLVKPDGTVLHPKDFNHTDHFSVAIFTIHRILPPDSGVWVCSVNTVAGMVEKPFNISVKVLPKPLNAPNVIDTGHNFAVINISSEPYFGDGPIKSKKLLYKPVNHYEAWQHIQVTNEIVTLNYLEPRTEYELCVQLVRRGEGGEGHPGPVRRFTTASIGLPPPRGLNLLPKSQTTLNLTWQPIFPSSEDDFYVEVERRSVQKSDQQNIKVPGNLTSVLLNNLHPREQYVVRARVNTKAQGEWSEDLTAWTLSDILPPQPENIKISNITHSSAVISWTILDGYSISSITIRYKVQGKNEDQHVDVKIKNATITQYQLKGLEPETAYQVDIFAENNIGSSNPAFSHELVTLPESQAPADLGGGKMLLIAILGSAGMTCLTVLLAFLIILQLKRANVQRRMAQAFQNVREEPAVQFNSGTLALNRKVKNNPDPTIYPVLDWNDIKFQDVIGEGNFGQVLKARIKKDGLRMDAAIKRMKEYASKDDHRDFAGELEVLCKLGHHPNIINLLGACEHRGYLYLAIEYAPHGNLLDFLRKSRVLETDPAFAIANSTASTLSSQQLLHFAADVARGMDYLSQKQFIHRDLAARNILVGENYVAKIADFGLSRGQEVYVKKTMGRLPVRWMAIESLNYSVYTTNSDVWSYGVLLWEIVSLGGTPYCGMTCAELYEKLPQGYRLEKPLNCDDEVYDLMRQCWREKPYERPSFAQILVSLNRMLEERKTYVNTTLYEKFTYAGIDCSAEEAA
T2 sequence (P35916 with tags, fused parts or gaps isoform P35916-1 H890Q): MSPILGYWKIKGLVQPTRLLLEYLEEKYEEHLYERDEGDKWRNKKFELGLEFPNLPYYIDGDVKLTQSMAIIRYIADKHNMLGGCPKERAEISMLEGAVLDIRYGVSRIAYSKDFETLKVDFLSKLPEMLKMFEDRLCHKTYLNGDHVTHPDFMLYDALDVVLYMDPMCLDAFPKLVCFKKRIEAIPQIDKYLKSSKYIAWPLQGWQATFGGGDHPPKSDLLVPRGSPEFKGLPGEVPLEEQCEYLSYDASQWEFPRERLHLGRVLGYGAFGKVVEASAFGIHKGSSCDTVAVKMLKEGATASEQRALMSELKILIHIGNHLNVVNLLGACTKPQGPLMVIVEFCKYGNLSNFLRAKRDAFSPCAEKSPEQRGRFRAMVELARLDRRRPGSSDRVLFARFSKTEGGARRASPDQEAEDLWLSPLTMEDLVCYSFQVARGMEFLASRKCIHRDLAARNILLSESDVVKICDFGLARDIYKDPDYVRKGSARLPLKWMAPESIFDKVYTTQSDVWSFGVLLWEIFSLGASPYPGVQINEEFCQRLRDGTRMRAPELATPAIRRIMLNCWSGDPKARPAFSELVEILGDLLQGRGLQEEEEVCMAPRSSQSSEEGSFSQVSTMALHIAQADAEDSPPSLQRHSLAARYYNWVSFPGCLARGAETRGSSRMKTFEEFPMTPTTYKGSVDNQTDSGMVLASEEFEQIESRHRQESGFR

| Molecule | VEGFR2 PIC50 VEGFR-E2 assay [1] | VEGFR3 PIC50 VEGFR-3-HTRF assay [2] | IC50 [3] [nM] | TIE2 % inhibition (at 10 μM) TIE2-FP assay ([3]; at 10 μM) [%] |
| --- | --- | --- | --- | --- |
| CCN(CC)CCCCNc1ncnc2c1c(-c1ccc(NC(=O)Nc3cc(C(F)(F)F)ccc3F)cc1)nn2C [Example 34, 1-{4-[(4-Diethylamino-butylamino)-methyl-1H-pyrazolo[3,4-d]pyrimidin-3-yl]-phenyl}-3-(2-fluoro-5-trifluoromethyl-phenyl)-urea] | + (+ = PIC50 = 5.00 to less than 6.00) | + (+ = PIC50 = 5.00 to less than 6.00) | < 100 |  |
| O=C(Nc1ccc(-c2n[nH]c3ncnc(N(CCN4CCOCC4)Cc4ccccc4)c23)cc1)Nc1cc(C(F)(F)F)ccc1F [Example 50, 1-{4-[Benzyl-(2-morpholin-4-yl-ethylamino)-1H-pyrazolo[3,4-d]pyrimidin-3-yl]-phenyl}-3-(fluoro-trifluoromethyl-phenyl)-urea] | ++ (++ = PIC50 = 6.00 to less than 7.00) | + (+ = PIC50 = 5.00 to less than 6.00) | < 100 |  |
| 1-{4-[Benzyl-(2-morpholin-4-yl-ethylamino)-1H-pyrazolo[3,4-d]pyrimidin-3-yl]-phenyl}-3-(fluoro-trifluoromethyl-phenyl)-thiourea [Example 51] | + (+ = PIC50 = 5.00 to less than 6.00) | + (+ = PIC50 = 5.00 to less than 6.00) |  | 0 |
